Holding throughout (assay type): functional, cell-based
In one test the test system is A-431. Description: Cytotoxicity against human A431 cells after 24 hrs by MTT assay. As to conditions: A-431, 24 h. For orientation: Tetrazolium assays rely on reduction of a dye to a coloured formazan, in cell work by metabolically active cells.
For the next test, the system named is MCF7. Description: Cytotoxicity against human MCF7 cells after 24 hrs by MTT assay. As to conditions: MCF7, 24 h.
For another test, the system named is HT-29. The test can be described thus: Cytotoxicity against human HT-29 cells after 24 hrs by MTT assay. The note with it: HT-29, 24 h.

The term IC50 denotes the point on the concentration scale where inhibition reaches its midpoint. A low value points to greater potency in that assay. As to `CC(=O)O[C@H]1C[C@@](C)(Cl)[C@H](Br)C[C@@H]1[C@]1(C)OC(C)(C)[C@@H](Br)C[C@@H]1O`, the half-inhibitory concentration (IC50) was 13.1 µM with A-431, 11.7 µM in the test on MCF7 and 12.4 µM in the test with HT-29.
Consider `C[C@]1(O)OC(=O)C=C1[C@@H]1CC[C@@](C)(Cl)[C@H](Br)C1` [FUROCAESPITANELACTOL], for which the IC50 in the test with A-431, with MCF7 and in the test with HT-29 was over 100 µM in each case.
Consider `CC1(C)O[C@@](C)([C@@H]2CC[C@@](C)(Cl)[C@H](Br)C2)CC[C@H]1Br`, for which the 50% inhibitory concentration (IC50) in the test on A-431, in the test on MCF7 and in the test on HT-29 was over 100 µM in each case.
Regarding `CO[C@@]1(C)OC(=O)C=C1[C@@H]1CC[C@@](C)(Cl)[C@H](Br)C1` (relative stereo), the IC50 in the test on A-431 turned out to be 91.7 µM; in the test with MCF7, 89 µM; with HT-29, 85.6 µM.
In the same order, the values of `CC1(C)O[C@@](C)([C@@H]2CC[C@](C)(Br)[C@@H](Cl)C2)CC[C@@H]1Br` [DEOXY ISOCAESPITOL] are 30.7 µM, 31.7 µM and 27.3 µM.
For the compound `CC1(C)O[C@@](C)([C@@H]2CC[C@](C)(Br)[C@@H](Cl)C2)[C@@H](O)C[C@@H]1Br` [ISOCAESPITOL], the IC50 in the test with A-431, in the test with MCF7 and in the test with HT-29 was over 100 µM throughout.
As for `CCCCCCCCCCCCCCCCOP(=O)([O-])OCC[N+](C)(C)C` [MILTEFOSINE], the results for the IC50 in the test with A-431, in the test on MCF7 and in the test with HT-29 were 53.7 µM, 42.3 µM and 48.6 µM, respectively.
In the same order, the values of `CC(=O)O[C@H]1C[C@@](C)(Cl)[C@H](Br)C[C@@H]1[C@@]1(C)CC[C@H](Br)C(C)(C)O1` are 54.9 µM, 52.4 µM and 48.8 µM.
`CC1(C)O[C@](C)([C@H]2CC[C@](C)(Cl)[C@@H](Br)C2)[C@H](O)C[C@H]1Br` [CAESPITOL]: the IC50 in the test on A-431 is 10.2 µM; in the test on MCF7, 9.7 µM; in the test with HT-29 it was 7.6 µM.
The like results for `CC(=O)O[C@H]1C[C@@](C)(Cl)[C@H](Br)C[C@@H]1[C@]1(C)OC(C)(C)[C@@H](Br)C[C@@H]1OC(C)=O` were, in that order, over 100 µM, over 100 µM and over 100 µM.
For the compound `CC1(C)C=CC(=O)[C@](C)([C@@H]2CC[C@@](C)(Cl)[C@H](Br)C2)O1` [CAESPITENONE], the IC50 came to 21.6 µM in the test on A-431, 19.7 µM in the test with MCF7 and 18.9 µM in the test with HT-29.
On to `CC1(C)O[C@@](C)([C@@H]2CC[C@@](C)(Cl)[C@H](Br)C2)CC[C@@H]1Br` [DEOXYCAESPITOL], for which the IC50 in the test on A-431 was 13.1 µM; in the test on MCF7 it was 11.2 µM; with HT-29 it was 12.5 µM.
Turning to `CC(=O)O[C@H]1C[C@H](Br)C(C)(C)O[C@@]1(C)[C@H]1C[C@@H](Br)[C@](C)(Cl)C[C@@H]1O`, the figures for the IC50 with A-431, with MCF7 and in the test on HT-29 were 72.1 µM, 73.6 µM and 70.4 µM, respectively.
In the same order, the values of `CO[C@]1(C)OC(=O)C=C1[C@@H]1CC[C@@](C)(Cl)[C@H](Br)C1` (relative stereo) are over 100 µM, over 100 µM and over 100 µM.
`CC(=O)O[C@H]1C[C@H](Br)C(C)(C)O[C@@]1(C)[C@@H]1CC[C@@](C)(Cl)[C@H](Br)C1` [ACETYLCAESPITOL]: the IC50 with A-431 came to 17.4 µM; in the test with MCF7, 17.6 µM; in the test on HT-29 it was 16.1 µM.
